{"source": "patent US9186369B2", "about": "“Purine nucleoside analogues for treating flaviviridae including hepatitis C” (Idenix Pharmaceuticals, Inc., priority 2003, dated 2015)", "data": [{"tested_on": "MDK", "assay": "Cytotoxicity assay (sulforhodamine staining, CC50)", "format": "cell-based", "conditions": "MDK cells; 4 days incubation; concentration reducing cell number by 50%; preliminary results", "protocol": "Cells are seeded at a rate of between 5×10^3 and 5×10^4/well into 96-well plates in growth medium overnight at 37° C. in a humidified CO2 (5%) atmosphere. New growth medium containing serial dilutions of the drugs is then added. After incubation for 4 days, cultures are fixed in 50% TCA and stained with sulforhodamine. The optical density was read at 550 nm. The cytotoxic concentration was expressed as the concentration required to reduce the cell number by 50% (CC50).", "units": {"CC50": "µM"}, "values": [{"molecule": "C[C@]1(CO)O[C@@H](n2ccc(=S)[nH]c2=O)[C@H](O)[C@@H]1O", "note": "[β-D-4′-CH3-ribo-4-thioU]", "CC50": "> 250"}, {"molecule": "CC1(CO)OC(n2cc(F)c(=O)[nH]c2=O)C(O)C1O", "note": "[β-D-4′-CH3-ribo-5-fluoroU]", "CC50": "> 167"}, {"molecule": "C[C@]1(CO)O[C@@H](n2cnc3c(N)ncnc32)[C@H](O)[C@@H]1O", "note": "[β-D-4′-CH3-riboA]", "CC50": "> 250"}, {"molecule": "C[C@]1(CO)O[C@@H](n2ccc(N)nc2=O)[C@H](O)[C@@H]1O", "note": "[β-D-4′-CH3-riboC]", "CC50": "> 250"}, {"molecule": "C[C@]1(CO)O[C@@H](n2cnc3c(=O)[nH]c(N)nc32)[C@H](O)[C@@H]1O", "note": "[β-D-4′-CH3-riboG]", "CC50": "> 250"}, {"molecule": "Cc1cn([C@@H]2O[C@](C)(CO)[C@@H](O)[C@H]2O)c(=O)[nH]c1=O", "note": "[β-D-4′-CH3-riboT]", "CC50": "> 250"}]}]}
